IC50 and melting point data for eight compounds are collected here from patent publication US9169241B2, “Quinolinyloxyphenylsulfonamides” (Max-Planck-Gesellschaft Zur Forderung der Wissenschaften …, priority 2009, dated 2015).

Structures are written as SMILES.

The test system of data set [1] is Hs578T. Put plainly: Cell vitality assay (ATP assay, CellTiter-Glo). The format is cell-based. The conditions noted are these: Homo sapiens, Hs-578T; HS578T cell line, 72 h; Table Ib; read-out: IC50 ATP-Assay HS578T after 72 h. On the procedure:
The CellTiter-Glo® Luminescent Cell Viability Assay (Promega Corporation. Madison, Wis., USA) is method a determining the number of viable cells in culture based on quantification of the ATP being present which is an indicator of metabolically active cells was used according to manufacturers protocol, In detail the assay was performed in a 96 well format were 1000 cells/well were incubated with indicated compound at concentration of 12.5 μM, 6.25 μM, 3.125 μM, 1.56 μM, 0.78 μM, 0.39 μM, 0.195 μM as well as DMSO control for 72 h in 100 μl cell culture medium. IC50 values were calculated as 50% of ATP amount compared to DMSO control.
Protocol for the CellTiter-Glo® Luminescent Cell Viability Assay • 1. Prepare opaque-walled multiwell plates with mammalian cells in culture medium, 100 μl per well for 96-well plates • 2. Prepare control wells containing medium without cells to obtain a value for background luminescence. • 3. Add the compound to be tested to experimental wells, and incubate according to culture protocol. • 4. Equilibrate the plate and its contents at room temperature for approximately 30 minutes. • 5. Add a volume of CellTiter-Glo® Reagent (Promega Corporation. Madison, Wis.) equal to the volume of cell culture medium present in each well. • 6. Mix contents for 2 minutes on an orbital shaker to induce cell lysis. • 7. Allow the plate to incubate at room temperature for 10 minutes to stabilize luminescent signal. • 8. Record luminescence on Microplate Luminometer LB96V (Berthold Tchnologies, Bad Wildbad, Germany). An integration time of 0.1 and 1 second per well
A general note: ATP-based viability assays read luminescence as a measure of living cells.

The subject of data set [2] is Hs578T. The data set can be described thus: Wound healing migration assay. The following applies: Homo sapiens, Hs-578T; HS578T cell line; Table Ib. The format is cell-based. On the procedure:
This method mimics cell migration during wound healing in vivo. The basic steps involve creating a “wound” in a cell monolayer, capturing the images at the beginning and at regular intervals during cell migration to close the wound, and comparing the images to quantify the migration rate of the cells. In detail, 150000 cell/24 well have been seeded and allowed to form a monolayer overnight. Subsequently a “wound” or “scratch” has been performed with a 1000 μl pipette tip. The STDV of wound size is normally below 10% at time point t0. The assay was stopped by fixation with 0.05% Crystal violet/20% methanol when control scratches were closed. The assay was terminated between 48 h and 72 h depending on the migration potential of the indicated cell line. The “wounds” were visualized with a Zeiss Axiovert S100 microscope (Carl Zeiss UK, Welwyn Garden City, UK). The tested compounds were used at 12.5 μM, 6.25, 3.125 μM and DMSO control. IC50 values have been calculated as 50% wound size in between t0 and t48 or t72.

For data set [3], the system named is Hs578T. Put plainly: Matrigel outgrowth assay/branching assay. Format: cell-based. The conditions noted are these: Homo sapiens, Hs-578T; HS578T cell line; Table Ib; read-out: Total branching inhibition in Matrigel HS578T. On the procedure:
The Matrigel outgrowth assay is based on the ability of tumor cell to penetrate a solid gel of extracellular matrix proteins mimicking the metastasis formation in vivo. While cells with low invasive potential appear as roundish cell or cell cluster, cells with high invasive potential penetrate the Matrigel and form polymorphic structures. In detail 65 μl of Matrigel matrix (Matrigel™ Matrix, BD Biosciences, Bedford, Mass., USA) with a concentration of 3 mg/ml have been polymerized in 96 well plates for 1 h at 37° C. Subsequently 5000 cell/well were seeded into each well containing cell culture medium and indicated compound with concentrations of 3.125 μM, 1.56 μM and 0.78 μM as well as DMSO control. After 48 h, 72 h and 96 h images of cell were taken on an inverted microscope using a 5× objective (Zeiss Axiovert S100 microscope Carl Zeiss UK, Welwyn Garden City, UK). Only compound concentrations were total branching inhibition was evident were accounted as positive. Method was used as previously described, with some modifications (Thompson E W, et al. Association of increased basement membrane invasiveness with absence of estrogen receptor and expression of vimentin in human breast cancer cell lines. J Cell Physiol 1992; 150:534-44).

Take `COc1cc2c(Oc3ccc(NS(=O)(=O)c4c(C)nn(C)c4C)cc3F)ccnc2cc1OCCCN1CCOCC1` [Example 161, 1,3,5-Trimethyl-1H-pyrazole-4-sulfonic acid {3-fluoro-4-[6-methoxy-7-(3-morpholin-4-yl-propoxy)-quinolin-4-yloxy]-phenyl}-amide]: the melting point (as a rule, the temperature of the solid-liquid transition) is 163 to 164 °C. The IC50 with Hs578T [1] is no more than 12.5 µM. For the same compound, the IC50 in the data set with Hs578T [2] fell in the range of 12.5 to 50 µM. The IC50 in the data set with Hs578T [3] lay in the range of 10 to 25 µM.

`COc1cc2c(Oc3ccc(NS(=O)(=O)c4c(C)nn(C)c4C)cc3F)ccnc2cc1OCCCN1CCN(C)CC1` [Example 162, 1,3,5-Trimethyl-1H-pyrazole-4-sulfonic acid (3-fluoro-4-{6-methoxy-7-[3-(4-methyl-piperazin-1-yl)-propoxy]-quinolin-4-yloxy}-phenyl)-amide] registered a melting point of 80 to 81 °C. Also, the IC50 with Hs578T [1] is no more than 12.5 µM. In addition, in the data set on Hs578T [2], the IC50 fell in the range of 12.5 to 50 µM. For the same compound, the IC50 with Hs578T [3] was in the range of 10 to 25 µM.

The compound `COc1cc2c(Oc3ccc(NS(=O)(=O)c4ccn(C)n4)cc3F)ccnc2cc1OCCCN1CCCCC1` [Example 163, 1-Methyl-1H-pyrazole-3-sulfonic acid {3-fluoro-4-[6-methoxy-7-(3-piperidin-1-yl-propoxy)-quinolin-4-yloxy]-phenyl}-amide] yielded a melting point of 167 to 168 °C. In addition, in the data set with Hs578T [1], the IC50 was no more than 12.5 µM. Further, the IC50 in the data set with Hs578T [2] lay within 12.5 to 50 µM. Also, in the data set with Hs578T [3], the IC50 fell in the range of 10 to 25 µM.

`COc1cc2c(Oc3ccc(NS(=O)(=O)c4ccn(C)n4)cc3F)ccnc2cc1OCCCN1CCC(C)CC1` [Example 164, 1-Methyl-1H-pyrazole-3-sulfonic acid (3-fluoro-4-{6-methoxy-7-[3-(4-methyl-piperidin-1-yl)-propoxy]-quinolin-4-yloxy}-phenyl)-amide] displayed a melting point of 165 to 166 °C. For the same compound, the IC50 in the data set on Hs578T [1] was no more than 12.5 µM. The compound further gave an IC50 with Hs578T [2] of 12.5 to 50 µM. Further, in the data set on Hs578T [3], the IC50 lay within 10 to 25 µM.

`COc1cc2c(Oc3ccc(NS(=O)(=O)c4ccn(C)n4)cc3F)ccnc2cc1OCCCN1CCOCC1` [Example 165, 1-Methyl-1H-pyrazole-3-sulfonic acid {3-fluoro-4-[6-methoxy-7-(3-morpholin-4-yl-propoxy)-quinolin-4-yloxy]-phenyl}-amide] had a melting point of 198 to 199 °C. Besides, the IC50 in the data set on Hs578T [1] was no more than 12.5 µM. In the data set on Hs578T [2], this compound registered an IC50 of 12.5 to 50 µM. For the same compound, in the data set on Hs578T [3], the IC50 was in the range of 10 to 25 µM.

Take `COc1cc2c(Oc3ccc(NS(=O)(=O)c4ccn(C)n4)cc3F)ccnc2cc1OCCCN1CCN(C)CC1` [Example 166, 1-Methyl-1H-pyrazole-3-sulfonic acid (3-fluoro-4-{6-methoxy-7-[3-(4-methyl-piperazin-1-yl)-propoxy]-quinolin-4-yloxy}-phenyl)-amide]: the melting point is 157 to 159 °C. Besides, the IC50 in the data set on Hs578T [1] was no more than 12.5 µM. The compound also displayed an IC50 in the data set with Hs578T [2] of 12.5 to 50 µM. In the data set with Hs578T [3], the IC50 was 10 to 25 µM.

`COc1cc2c(Oc3ccc(NS(=O)(=O)c4cnc(C)[nH]4)cc3F)ccnc2cc1OCCCN1CCCCC1` [Example 167, 2-Methyl-3H-imidazole-4-sulfonic acid {3-fluoro-4-[6-methoxy-7-(3-piperidin-1-yl-propoxy)-quinolin-4-yloxy]-phenyl}-amide] returned a melting point of 160 to 163 °C. Also, the IC50 in the data set on Hs578T [1] lay in the range of 12.5 to 50 µM. Moreover, the IC50 in the data set on Hs578T [2] was in the range of 12.5 to 50 µM. Moreover, the IC50 in the data set with Hs578T [3] fell in the range of 10 to 25 µM.

In turn, `COc1cc2c(Oc3ccc(NS(=O)(=O)c4cnc(C)[nH]4)cc3F)ccnc2cc1OCCCN1CCC(C)CC1` [Example 168, 2-Methyl-3H-imidazole-4-sulfonic acid (3-fluoro-4-{6-methoxy-7-[3-(4-methyl-piperidin-1-yl)-propoxy]-quinolin-4-yloxy}-phenyl)-amide] gave a melting point of 225 to 226 °C. Besides, in the data set with Hs578T [1], the IC50 lay within 12.5 to 50 µM. Further, in the data set on Hs578T [2], the IC50 was in the range of 12.5 to 50 µM. The IC50 in the data set on Hs578T [3] fell in the range of 10 to 25 µM.
